# Activity calls are given as the source filed them.
# Assays:
# fMet-Leu-Phe receptor = fMet-Leu-Phe receptor (Homo sapiens, UniProt P21462); test: formyl peptide receptor binders – dose response (AID 519); type: functional
# [1] = blockers of HIV-1 ZM109 envelope-driven cell-cell fusion – HeLa effector, CEM target cells, luciferase, cherry-pick, dose response (AID 652058); type: functional, cell-based;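 also: luciferase signal from HIV-1 Env mediated cell-cell fusion of effector and target cells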
# [2] = HEK-293T viability loss after treatment – luminescence, T-cell screen hits, cytotoxicity control for TCR NF-kB inhibitor project, dose response (AID 489026); type: functional, cell-based;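 also: cells exposed to compound about 14 hours before the viability readout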
# [3] = NIH-3T3 fibroblast cytotoxicity, dose response, cytotoxicity control, cell-based, fluorescence, Alamar Blue, secondary assay (AID 2327); type: functional;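 also: NIH-3T3 mouse fibroblasts cultured with fluconazole at 8 µg/mL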
# [4] = molecular target: COUP transcription factor 2 (Homo sapiens, UniProt P24468); test: Luminescence-based cell-based high throughput dose response assay to identify inhibitors of COUP-TFII (NR2F2).; type: functional;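 also: HEK293 cells transiently cotransfected with COUP-TFII expression vector and reporter; luciferase reporter luminescence driven by COUP-TFII from the pX2-168 reporter plasmid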
# COUP transcription factor 2, sequence (P24468 whole entry): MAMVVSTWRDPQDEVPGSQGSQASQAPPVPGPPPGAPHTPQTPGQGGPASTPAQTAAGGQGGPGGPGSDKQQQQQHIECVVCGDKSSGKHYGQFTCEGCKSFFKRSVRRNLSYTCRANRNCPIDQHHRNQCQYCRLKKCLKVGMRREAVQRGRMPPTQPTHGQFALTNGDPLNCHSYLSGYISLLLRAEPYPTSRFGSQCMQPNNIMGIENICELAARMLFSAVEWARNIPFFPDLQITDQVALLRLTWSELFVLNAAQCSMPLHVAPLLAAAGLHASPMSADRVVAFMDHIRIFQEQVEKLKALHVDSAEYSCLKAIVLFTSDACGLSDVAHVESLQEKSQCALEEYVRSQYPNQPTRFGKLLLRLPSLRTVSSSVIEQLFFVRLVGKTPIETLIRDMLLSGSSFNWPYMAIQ
# [5] = HPDE-C7 pancreatic duct cell viability loss – fluorescence, HTS (AID 430); type: functional, cell-based; conditions: Homo sapiens
# [6] = molecular target: T1, Serine/threonine-protein phosphatase (Candida dubliniensis (strain CD36 / CBS 7987 / NCPF 3949 / NRRLY-17841) (Yeast), UniProt B9W6M3); test: blockers of CaCl2-induced CDRE-lacZ signaling – S. cerevisiae, luminescence, secondary, dose response (AID 2388); type: functional, cell-based;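 also: yeast reporter cells carrying a calcineurin-responsive lacZ construct stimulated with calcium chloride; luminescent beta-galactosidase reporter signal in whole cells rather than isolated phosphatase activity; potency for inhibition where a drop in reporter signal means calcineurin blockade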
# T1 sequence (B9W6M3 whole entry): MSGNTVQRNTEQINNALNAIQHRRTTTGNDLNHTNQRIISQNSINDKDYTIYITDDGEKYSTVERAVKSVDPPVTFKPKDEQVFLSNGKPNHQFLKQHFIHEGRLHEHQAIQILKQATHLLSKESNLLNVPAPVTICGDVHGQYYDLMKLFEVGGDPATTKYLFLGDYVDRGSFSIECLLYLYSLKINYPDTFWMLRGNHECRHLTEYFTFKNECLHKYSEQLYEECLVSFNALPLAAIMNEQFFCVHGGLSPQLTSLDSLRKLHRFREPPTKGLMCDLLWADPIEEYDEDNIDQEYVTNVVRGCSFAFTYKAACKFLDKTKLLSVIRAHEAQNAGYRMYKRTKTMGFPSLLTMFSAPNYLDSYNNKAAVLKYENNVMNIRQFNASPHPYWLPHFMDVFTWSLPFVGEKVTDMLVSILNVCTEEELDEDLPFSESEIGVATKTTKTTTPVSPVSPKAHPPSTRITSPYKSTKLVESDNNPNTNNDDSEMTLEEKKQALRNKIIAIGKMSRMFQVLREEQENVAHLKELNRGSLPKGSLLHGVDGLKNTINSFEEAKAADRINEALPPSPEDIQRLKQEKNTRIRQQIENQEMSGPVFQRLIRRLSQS
# [7] = molecular target: T2, Short transient receptor potential channel 4 (Mus musculus, UniProt Q9QUQ5); test: calcium entry via TRPC4 opening agents – cell-based, HEK293 TRPC4/mu-opioid, Fluo-4 calcium, dose response (AID 434937); type: functional
# T2 sequence (Q9QUQ5 whole entry): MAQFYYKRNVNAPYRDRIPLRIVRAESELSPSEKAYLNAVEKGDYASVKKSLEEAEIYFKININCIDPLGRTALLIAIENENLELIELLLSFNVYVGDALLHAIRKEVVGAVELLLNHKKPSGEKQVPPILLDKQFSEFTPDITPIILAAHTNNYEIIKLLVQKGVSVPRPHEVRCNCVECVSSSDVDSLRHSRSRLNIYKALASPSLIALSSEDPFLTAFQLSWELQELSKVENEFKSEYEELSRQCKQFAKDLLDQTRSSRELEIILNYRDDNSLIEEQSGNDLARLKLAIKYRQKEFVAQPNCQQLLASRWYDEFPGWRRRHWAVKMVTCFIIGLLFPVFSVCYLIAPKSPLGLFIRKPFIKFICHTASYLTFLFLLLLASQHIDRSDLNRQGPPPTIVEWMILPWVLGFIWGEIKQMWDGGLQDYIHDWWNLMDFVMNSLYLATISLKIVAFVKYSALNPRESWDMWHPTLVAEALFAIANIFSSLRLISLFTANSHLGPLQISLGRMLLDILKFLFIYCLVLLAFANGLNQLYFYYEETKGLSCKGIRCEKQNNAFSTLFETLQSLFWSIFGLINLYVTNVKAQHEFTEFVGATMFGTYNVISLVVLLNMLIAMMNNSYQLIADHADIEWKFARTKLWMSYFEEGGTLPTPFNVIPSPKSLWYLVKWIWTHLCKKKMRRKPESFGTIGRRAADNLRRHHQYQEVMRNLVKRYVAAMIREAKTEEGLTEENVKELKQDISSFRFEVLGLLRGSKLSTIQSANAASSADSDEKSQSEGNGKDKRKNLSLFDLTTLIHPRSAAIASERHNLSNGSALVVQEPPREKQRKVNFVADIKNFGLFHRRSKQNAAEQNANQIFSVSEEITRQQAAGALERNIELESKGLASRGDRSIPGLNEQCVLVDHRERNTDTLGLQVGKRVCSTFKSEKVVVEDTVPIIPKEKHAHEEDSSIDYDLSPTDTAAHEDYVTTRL
# [8] = fluconazole-exposed Candida albicans growth modulators – fluorescence, retest, confirmation (AID 2467); type: functional, cell-based
# [9] = viability loss of HPDE-C7K cells – cell-based, fluorescence, HTS, primary screen (AID 431); type: functional; conditions: Homo sapiens
# [10] = HIV-1 AD8 envelope cell-cell fusion blockers – cherry-pick, dose response (AID 652062); type: functional, cell-based;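 also: luciferase signal from cell-cell fusion driven by HIV-1 clade B AD8 Env; potency is for inhibitors of fusion seen as a drop in luminescence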
# [11] = viability loss in CEM21 cells – cell-based, CellTiter-Glo luminescence, cherry-picked, cytotoxicity control for viral fusion inhibitor project, dose response (AID 652042); type: functional;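 also: potency for signal decrease meaning cytotoxicity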
# [12] = molecular target: ATP-dependent molecular chaperone HSP82 (Candida albicans (strain WO-1) (Yeast), UniProt C4YTQ8); test: steroid-induced GRE reporter decrease in yeast – S. cerevisiae, luminescence, Hsp90 inhibitor project, dose response (AID 2400); type: functional, cell-based;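 also: beta-galactosidase luminescence from glucocorticoid response element reporter as proxy for Hsp90 function; inhibitor potency where signal loss means Hsp90 inhibition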
# ATP-dependent molecular chaperone HSP82, sequence (C4YTQ8 whole entry): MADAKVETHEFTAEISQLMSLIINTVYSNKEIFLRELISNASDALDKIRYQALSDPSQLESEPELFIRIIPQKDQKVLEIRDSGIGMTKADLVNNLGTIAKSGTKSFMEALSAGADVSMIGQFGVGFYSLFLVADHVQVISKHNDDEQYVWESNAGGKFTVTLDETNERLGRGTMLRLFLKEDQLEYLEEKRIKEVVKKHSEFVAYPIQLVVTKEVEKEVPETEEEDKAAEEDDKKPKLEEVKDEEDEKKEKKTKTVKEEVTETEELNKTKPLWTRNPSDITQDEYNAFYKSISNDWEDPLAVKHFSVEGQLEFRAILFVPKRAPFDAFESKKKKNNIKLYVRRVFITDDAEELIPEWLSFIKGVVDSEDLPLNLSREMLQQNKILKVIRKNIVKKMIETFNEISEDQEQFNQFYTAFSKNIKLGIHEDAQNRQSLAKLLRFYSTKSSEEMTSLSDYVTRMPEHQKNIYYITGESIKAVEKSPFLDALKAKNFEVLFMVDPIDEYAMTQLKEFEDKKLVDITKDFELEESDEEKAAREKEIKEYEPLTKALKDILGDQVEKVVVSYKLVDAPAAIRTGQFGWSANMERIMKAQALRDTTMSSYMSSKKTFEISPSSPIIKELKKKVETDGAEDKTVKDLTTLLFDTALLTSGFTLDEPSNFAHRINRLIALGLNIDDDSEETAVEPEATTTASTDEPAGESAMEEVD
# [13] = Luminescence Cell-Based Dose Response HTS to Identify Activators of Luciferase Translation or Activity in H4 […] Cells. [Related pubchem assays: 1829 (Project Summary), 1814 (Primary HTS)]; type: functional
# cells [14] = type: functional, cell-based
# H4 = test: Luminescence Cell-Based Dose Response HTS to Identify Activators of 5'UTR Stem-Loop Driven Prion Protein mRNA Translation in H4 Neuroglioblastoma Cells. [Related pubchem assays: 1829 (Project Summary), 1814 (Primary HTS)]; type: functional; conditions: Homo sapiens
# [15] = Luminescence Cell-Based Dose Confirmation HTS to Identify Activators of 5'UTR Stem-Loop Driven Alpha-Synuclein mRNA Translation in H4 Neuroglioblastoma Cells. [Related pubchem assays: 1829 (Project Summary), 1814 (Primary HTS)]; type: functional
# [16] = molecular target: T3, Oxysterols receptor LXR-beta (Homo sapiens, UniProt P55055); type: functional, cell-based;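 also: agonist activity at LXR measured by a cell-based luminescence readout across a dose range, run as a counterscreen for daf-12 agonists; HEK293 cells with Gal4-LXR fusion and GAL4-driven luciferase reporter; potency for activation of Gal4-LXR reporter so compounds are agonists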
# T3 sequence (P55055 whole entry): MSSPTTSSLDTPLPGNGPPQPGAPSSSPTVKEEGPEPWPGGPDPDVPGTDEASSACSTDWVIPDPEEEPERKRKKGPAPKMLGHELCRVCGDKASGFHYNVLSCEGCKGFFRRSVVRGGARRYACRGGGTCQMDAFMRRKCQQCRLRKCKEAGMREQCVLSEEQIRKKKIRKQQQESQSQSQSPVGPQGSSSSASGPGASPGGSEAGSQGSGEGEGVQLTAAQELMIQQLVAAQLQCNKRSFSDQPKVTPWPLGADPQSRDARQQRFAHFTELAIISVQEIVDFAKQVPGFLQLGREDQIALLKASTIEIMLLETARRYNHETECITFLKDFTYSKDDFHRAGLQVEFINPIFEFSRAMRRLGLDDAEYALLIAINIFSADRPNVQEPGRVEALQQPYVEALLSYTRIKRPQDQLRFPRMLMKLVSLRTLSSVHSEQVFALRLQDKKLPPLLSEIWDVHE
# cells [17] = type: functional, cell-based; remark: listed apart in the source
# [18] = molecular target: Photoreceptor-specific nuclear receptor (Homo sapiens, UniProt Q9Y5X4); type: functional, cell-based;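 also: CHO-S cells with Gal4-NCOR and VP16-NR2E3 two-hybrid luciferase reporter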
# Photoreceptor-specific nuclear receptor, sequence (Q9Y5X4 whole entry, the tested form may be a part): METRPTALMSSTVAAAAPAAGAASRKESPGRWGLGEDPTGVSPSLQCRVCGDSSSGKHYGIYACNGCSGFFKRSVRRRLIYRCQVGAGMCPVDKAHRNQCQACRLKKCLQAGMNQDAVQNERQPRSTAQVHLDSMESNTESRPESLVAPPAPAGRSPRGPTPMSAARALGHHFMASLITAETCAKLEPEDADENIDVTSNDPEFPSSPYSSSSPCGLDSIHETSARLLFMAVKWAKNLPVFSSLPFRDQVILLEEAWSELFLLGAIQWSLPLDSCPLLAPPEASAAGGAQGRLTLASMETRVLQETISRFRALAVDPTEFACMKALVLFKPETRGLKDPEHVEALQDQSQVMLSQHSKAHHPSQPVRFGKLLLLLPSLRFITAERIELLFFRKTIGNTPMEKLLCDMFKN
# [19] = viability loss in MITF-independent A375 cells – cell-based, CellTiter-Glo luminescence, dry powder, set 2, counter-screen for MITF inhibitor project, dose response (AID 624489); type: functional; conditions: A-375;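 also: actives are compounds lowering A375 viability meaning general cytotoxicity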
# [20] = cytotoxicity in MITF-independent A375 cells – cell-based, CellTiter-Glo luminescence, dry powder, set 4, counter-screen for MITF inhibitor project, dose response (AID 624364); type: functional; conditions: A-375;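 also: A375 melanoma cells are MITF independent so this is a counter screen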
# fMet-Leu-Phe receptor, sequence (P21462 whole entry, the tested form may be a part): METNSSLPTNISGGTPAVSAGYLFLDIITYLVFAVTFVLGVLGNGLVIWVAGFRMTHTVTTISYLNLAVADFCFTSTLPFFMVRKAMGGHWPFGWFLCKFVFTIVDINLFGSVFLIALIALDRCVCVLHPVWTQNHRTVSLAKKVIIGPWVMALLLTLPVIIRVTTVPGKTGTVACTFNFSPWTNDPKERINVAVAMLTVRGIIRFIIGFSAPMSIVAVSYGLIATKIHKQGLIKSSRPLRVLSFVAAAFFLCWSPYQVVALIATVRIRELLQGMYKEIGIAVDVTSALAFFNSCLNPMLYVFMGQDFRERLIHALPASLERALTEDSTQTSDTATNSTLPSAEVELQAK
compound,measurement,setting,value
Cc1nc(C)c(C(=O)C2=C(O)C(=O)N(CCCn3ccnc3)C2c2ccc(Cl)cc2)s1 (stereo not drawn),Ki,fMet-Leu-Phe receptor,> 66.7 µM (inactive)
c1ccc2c(c1)CCN(c1[nH]cnc3c4ccccc4nc1-3)C2,AC50,[1],2.62 µM (active)
same,IC50,[2],21 µM (inactive)
same,EC50,[3],> 150 µM (inactive)
same,IC50,[4],4.69 µM (active)
same,EC50,[5],17.7 µM (active)
same,EC50,[6],> 180 µM (inactive)
same,EC50,[7],5.96 µM (active)
same,EC50,[8],1.01 µM (active)
same,EC50,[9],> 20 µM (not active)
same,AC50,[10],4.09 µM (active)
same,AC50,[11],64.8 µM (active)
same,EC50,[12],> 150 µM (inactive)
Cc1ccc(NC(S)=NC(=NS(=O)(=O)c2ccccc2)c2ccccc2)cc1,EC50,[13],16.5 µM (active)
same,EC50,cells [14],> 350 µM (not active)
same,EC50,H4,6.51 µM (active)
same,EC50,[15],5.09 µM (active)
same,EC50,[16],> 67.5 µM (inactive)
same,EC50,cells [17],202 µM (active)
CCCc1cc(=O)n2nc(N3CCC(C(=O)N4CCN(c5ccc(OC)cc5)CC4)CC3)sc2n1,IC50,[4],7.18 µM (active)
same,IC50,[18],4.09 µM (active)
COc1ccc(C2=C(NC(=O)c3ccc4ccccc4c3)C(=O)c3ccccc3C2=O)cc1,AC50,[19],> 70 µM (inactive)
same,AC50,[20],> 70 µM (inactive)

# — ChEMBL document CHEMBL1201862, “PubChem BioAssay data set” (2004)
